Measurements as given in patent publication US20260262643A1, “HERBICIDAL BENZOXAZINES” (FMC CORPORATION, priority 2022, published 2026).

Legend:
barnyardgrass [1] = assay: Test C preemergence; format: in vivo, Echinochloa crusgalli; conditions: Preemergence, 1000 g ai/ha; visual rating after 10 days, 0 to 100 scale (0 no effect, 100 complete control)
Method in brief: (§1)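 Visual injury ratings on a 0–100 scale (100 = complete control) were made against untreated controls 10 days after treatment in the greenhouse. Compounds, formulated with surfactant in non-phytotoxic solvent, were sprayed on soil preemergence or onto one- to two-leaf plants 2–10 cm tall postemergence.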

foxtail, giant [2] = assay: Test C preemergence; format: in vivo, Setaria faberi; conditions: Preemergence, 1000 g ai/ha; visual rating after 10 days, 0 to 100 scale (0 no effect, 100 complete control)
Method in brief: as §1

kochia [3] = assay: Test C preemergence; format: in vivo, Bassia scoparia; conditions: Preemergence, 1000 g ai/ha; visual rating after 10 days, 0 to 100 scale (0 no effect, 100 complete control)
Method in brief: as §1

Pigweed, Redroot [4] = assay: Test C preemergence; format: in vivo, Amaranthus retroflexus; conditions: 1000 g ai/ha, visual rating after 10 days, 0 to 100 scale (0 no effect, 100 complete control)
From the text: (§2) Seeds of plant species selected from barnyardgrass (Echinochloa crusgalli), blackgrass (Alopecurus myosuroides), corn (Zea mays), foxtail, giant (giant foxtail, Setaria faberi), green foxtail (Setaria viridis), goosegrass (Eleusine indica), kochia (Bassia scoparia), oat, wild (wild oat, Avena fatua), pigweed, palmer (palmer amaranth, palmer pigweed, Amaranthus palmeri), Pigweed, Redroot (redroot pigweed, Amaranthus retroflexus), ragweed (common ragweed, Ambrosia artemisiifolia), ryegrass, Italian ([…] ryegrass, Lolium multiflorum), soybean (Glycine max), and wheat (Triticum aestivum) were planted into a blend of loam soil and sand and treated preemergence with a directed soil spray using test chemicals formulated in a non-phytotoxic solvent mixture which included a surfactant. At the same time, plants selected from these crops and weed species and also galium (catchweed bedstraw, Galium aparine) and horseweed (Erigeron canadensis) were planted in pots containing the same blend of loam soil and sand and treated with postemergence applications of test chemicals formulated in the same manner. Plants ranged in height from 2 to 10 cm and were in the one- to two-leaf stage for the postemergence treatment. Treated plants and untreated controls were maintained in a greenhouse for 10 days, after which time all treated plants were compared to untreated controls and visually evaluated for injury. Plant response ratings, summarized in Table C, are based on a 0 to 100 scale where 0 is no effect and 100 is complete control. A dash (-) response means no test result.

ragweed [5] = assay: Test C preemergence; format: in vivo, Ambrosia artemisiifolia; conditions: Preemergence, 1000 g ai/ha; visual rating after 10 days, 0 to 100 scale (0 no effect, 100 complete control)
Method in brief: as §1

ryegrass, Italian [6] = assay: Test C preemergence; format: in vivo, Lolium multiflorum; conditions: Preemergence, 1000 g ai/ha; visual rating after 10 days, 0 to 100 scale (0 no effect, 100 complete control)
Method in brief: as §1

barnyardgrass [7] = assay: Test C postemergence; format: in vivo, Echinochloa crusgalli; conditions: Postemergence, 1000 g ai/ha
Method in brief: as §1

blackgrass = assay: Test C postemergence; format: in vivo, Alopecurus myosuroides; conditions: Postemergence, 1000 g ai/ha
Method in brief: as §1

corn = assay: Test C postemergence; format: in vivo, Zea mays; conditions: Postemergence, 1000 g ai/ha
Method in brief: as §1

foxtail, giant [8] = assay: Test C postemergence; format: in vivo, Setaria faberi; conditions: Postemergence, 1000 g ai/ha
Method in brief: as §1

kochia [9] = assay: Test C postemergence; format: in vivo, Bassia scoparia; conditions: Postemergence, 1000 g ai/ha
Method in brief: as §1

Pigweed, Redroot [10] = assay: Test C postemergence; format: in vivo, Amaranthus retroflexus; conditions: 1000 g ai/ha
From the text: as §2

ragweed [11] = assay: Test C postemergence; format: in vivo, Ambrosia artemisiifolia; conditions: Postemergence, 1000 g ai/ha
Method in brief: as §1

ryegrass, Italian [12] = assay: Test C postemergence; format: in vivo, Lolium multiflorum; conditions: Postemergence, 1000 g ai/ha
Method in brief: as §1

wheat = assay: Test C postemergence; format: in vivo, Triticum aestivum; conditions: Postemergence, 1000 g ai/ha
Method in brief: as §1

galium = assay: Test C postemergence; format: in vivo, Galium aparine; conditions: Postemergence, 1000 g ai/ha
Method in brief: as §1

[13] = 10 days, visual 0 to 100 scale (0 no effect, 100 complete control)
[14] = 0 to 100 scale, 0 no effect, 100 complete control

## CCC1CN(C(=O)c2ccnc(-c3cccnc3)c2)c2cccc(Cl)c2O1 (racemic) [Compound 286]
Barnyardgrass [1]
  Plant response rating, Barnyardgrass: 0
foxtail, giant [2]
  Plant response rating, Foxtail, Giant: 0
Kochia [3]
  Plant response rating, Kochia: 0
Pigweed, Redroot [4]
  Plant response rating, Pigweed, Redroot: 0
Ragweed [5]
  Plant response rating, Ragweed: 0
ryegrass, Italian [6]
  Plant response rating, Ryegrass, Italian: 0
Barnyardgrass [7]; [13]
  Plant response rating, Barnyardgrass: 0
blackgrass; [13]
  Plant response rating, Blackgrass: 0
corn; [13]
  Plant response rating, Corn: 0
foxtail, giant [8]; [13]
  Plant response rating, Foxtail, Giant: 0
Kochia [9]; [13]
  Plant response rating, Kochia: 0
Pigweed, Redroot [10]; [13]
  Plant response rating, Pigweed, Redroot: 0
Ragweed [11]; [13]
  Plant response rating, Ragweed: 0
ryegrass, Italian [12]; [13]
  Plant response rating, Ryegrass, Italian: 0
wheat; [13]
  Plant response rating, Wheat: 0
galium; [13]
  Plant response rating, Galium: 0

## O=C(c1cccc(-n2cncn2)c1)N1CC2(CC2)Oc2ccccc21 [Compound 201]
Barnyardgrass [1]
  Plant response rating, Barnyardgrass: 0
foxtail, giant [2]
  Plant response rating, Foxtail, Giant: 10
Kochia [3]
  Plant response rating, Kochia: 0
Ragweed [5]
  Plant response rating, Ragweed: 0
ryegrass, Italian [6]
  Plant response rating, Ryegrass, Italian: 0
Barnyardgrass [7]; [14]
  Plant response rating, Barnyardgrass: 10
blackgrass; Alopecurus myosuroides, post-emergence, 240 h, 0 to 100 scale, 0 no effect, 100 complete control, read-out: Plant response rating, Blackgrass
  pest or weed control at 1000 g/ha: 0%
corn; Zea mays, post-emergence, 240 h, 0 to 100 scale, 0 no effect, 100 complete control
  Corn plant response rating (crop injury, 0 = no effect, 100 = complete kill) at 1000 g/ha: 0%
foxtail, giant [8]; [14]
  Plant response rating, Foxtail, Giant: 10
Kochia [9]; [14]
  Plant response rating, Kochia: 10
Pigweed, Redroot [10]; [14]
  Plant response rating, Pigweed, Redroot: 0
Ragweed [11]; [14]
  Plant response rating, Ragweed: 0
ryegrass, Italian [12]; [14]
  Plant response rating, Ryegrass, Italian: 0
wheat; [14]
  Plant response rating, Wheat: 0
galium; [14]
  Plant response rating, Galium: 40
